{"source": "ChEMBL document CHEMBL4303082", "about": "“A Large-scale Drug Repositioning Survey for SARS-CoV-2 Antivirals” (2020)", "note": "Square brackets hold non-standard residues; d marks the D form. Peptide text beside a SMILES is read from it. * marks the point of attachment. ξ: configuration not given here. ξF = NC(Cc1ccccc1)C(=O)O; Cbz = O=C(OCc1ccccc1)*; CHN2 = [N-]=[N+]=C*"}
{"tested_on": "SARS-CoV-2", "assay": "Determination of antiviral efficacy in high-content imaging assay in Vero E6 cells infected with SARS-CoV-2 (USA-WA1/2020 isolate) at MOI 0.75 after 24 hrs", "format": "functional, organism-based, Chlorocebus sabaeus", "settings": "Severe acute respiratory syndrome coronavirus 2, Vero C1008, 24 h", "units": {"EC50": "nM"}}
{"smiles": "COc1ccc2cc1Oc1ccc(cc1)C[C@H]1c3cc(c(OC)cc3CCN1C)Oc1c(OC)c(OC)cc3c1[C@H](C2)N(C)CC3", "note": "[FANCHININ]", "EC50": 1100}
{"smiles": "C[C@@H]1CS/C(=N\\NC(=O)C(=O)[C@@H](NC(=O)C2CCCCCC2)C2CCOCC2)N1C", "EC50": 500}
{"smiles": "COc1cccc2c(N3CCc4ccccc4C3C)nc(Nc3ccc(F)cc3C)nc12", "note": "(stereo unspecified)", "EC50": 950}
{"smiles": "C[C@@H]1CN(c2ncc(C(O)CO)cc2Cl)CCN1c1nc2c(-c3cc(F)c(F)c(F)c3)cc(C(F)(F)F)cc2[nH]1", "note": "(stereo partly specified)", "EC50": 950}
{"smiles": "CCNC/C=C\\CNCCCCNCCCCNC/C=C\\CNCC", "EC50": 250}
{"smiles": "CC(C)[C@H](NC(=O)OCc1ccccc1)C(=O)NC(C=O)Cc1ccccc1", "note": "(stereo partly drawn) (Cbz-Val-[ξF]-aldehyde)", "EC50": 220}
{"smiles": "CCC(CC)COC(=O)[C@H](C)N[P@](=O)(OC[C@H]1O[C@@](C#N)(c2ccc3c(N)ncnn23)[C@H](O)[C@@H]1O)Oc1ccccc1", "EC50": 620}
{"smiles": "Fc1ccc(-c2ccc(CN3CCN(c4cccc5ccoc45)CC3)[nH]2)cc1", "note": "[ELOPIPRAZOLE]", "EC50": 1100}
{"smiles": "Cc1cccc(/C=N/Nc2cc(N3CCOCC3)nc(OCCc3ccccn3)n2)c1", "note": "[APILIMOD]", "EC50": 23}
{"smiles": "CC(C)(C)NCc1ccc(Nc2ccnc3cc(Cl)ccc23)cc1O", "note": "[GSK-369796]", "EC50": 1200}
{"smiles": "CC(C)CC(NC(=O)OCc1ccccc1)C(=O)NC(C(=O)NCC(=O)C=[N+]=[N-])C(C)C", "note": "(stereo not drawn) (Cbz-Leu-Val-Gly-CHN2; configuration not given here)", "EC50": 190}
{"smiles": "C1=C(c2ccc(CN3CCCCC3)cc2)N2CCN=C2c2ccccc21", "EC50": 750}
{"smiles": "CN(C)CCn1c(C(=O)N2CCN(c3ccccc3Cl)CC2)c(C(c2ccc(O)cc2)c2ccc(O)cc2)c2ccccc21", "EC50": 1200}
{"smiles": "CC[C@H](NC(=O)[C@H](CS(=O)(=O)CC1CC1)N[C@@H](c1ccc(F)cc1)C(F)(F)F)C(=O)C(=O)NC1CC1", "EC50": 300}
{"smiles": "CC(C)(O)c1ccc2c(c1)/C(=C/CCN1CC[C@](O)(c3ccc(Cl)cc3)C(C)(C)C1)c1cccnc1CO2", "EC50": 140}
{"smiles": "COc1cc2c(cc1N1C[C@@H](C)N[C@@H](C)C1)N(C(=O)c1ccc(-c3ccc(-c4noc(C)n4)cc3C)cc1)CC2", "EC50": 1200}
